Laboratory results: US20080051429A1, “USE OF 4-AMINO-PIPERIDINES FOR TREATING SLEEP DISORDERS” (priority 2006, published 2008)
Counter-ions that a name gives are not always drawn. Like-named read-outs stand apart in the source and are kept apart here.

Target: T1, 5-HT2A receptor (Homo sapiens, UniProt P28223)
T1 construct: expressed in transfected cells; host or cells: NIH3T3 cells, pSI expression vector
Experiment: R-SAT functional receptor assay
Type: cell-based
Conditions: for Emax: 120 h
Protocol: The functional receptor assay, Receptor Selection and Amplification Technology (R-SAT), was used (with minor modifications from that previously described U.S. Pat. No. 5,707,798) to screen compounds for efficacy at the 5-HT2A receptor. Briefly, NIH3T3 cells were grown in 96 well tissue culture plates to 70-80% confluence. Cells were transfected for 12-16 hours with plasmid DNAs using superfect (Qiagen Inc.) as per manufacture's protocols. R-SAT's were generally performed with 50 ng/well of receptor and 20 ng/well of Beta-galactosidase plasmid DNA. All receptor and G-protein constructs used were in the pSI mammalian expression vector (Promega Inc) as described in U.S. Pat. No. 5,707,798. The 5HT2A receptor gene was amplified by nested PCR from brain cDNA using the oligodeoxynucleotides based on the published sequence (see Saltzman et. al. Biochem. Biophys. Res. Comm. 181:1469-78 (1991)). Large-scale transfections, cells were transfected for 12-16 hours, then trypsinized and frozen in DMSO. Frozen cells were later thawed, plated at 10,000-40,000 cells per well of a 96 well plate that contained drug. With both methods, cells were then grown in a humidified atmosphere with 5% ambient CO2 for five days. Media was then removed from the plates and marker gene activity was measured by the addition of the beta-galactosidase substrate ONPG (in PBS with 5% NP-40). The resulting colorimetric reaction was measured in a spectrophotometric plate reader (Titertek Inc.)at […]. All data were analyzed using the computer program XLFit (IDBSm). Efficacy is the percent maximal repression compared to repression by a control compound (ritanserin in the case of 5HT2A). pIC50 is the negative of the log(IC50), where IC50 is the calculated concentration in Molar that produces 50% maximal repression.
Briefly, the 5-HT2A receptor, and the alpha subunit of the guanine nucleotide binding protein Gq were transiently transfected into NIH3T3 cells and assayed using the functional receptor assay, Receptor Selection and Amplification Technology (R-SAT) essentially as disclosed in U.S. Pat. No. 5,707,798. Each compound was screened at seven serially diluted concentrations in triplicate. Data were analyzed using least squares fit analysis with GraphPad Prism (San Diego, Calif.), and are reported normalized to percent response.
R-SAT assays (as described in Example 42) were carried out with cells transfected with receptors (listed below) to determine the receptor selectivity profile for compound 26HCH16D. 5HT2A inverse agonist data (IC50 nM; % efficacy) were derived from detailed dose response curves (7 points in triplicate).
(§1) The functional receptor assay, Receptor Selection and Amplification Technology (R-SAT), was used (with minor modifications from that previously described U.S. Pat. No. 5,707,798) to screen compounds for efficacy at the 5-HT2A receptor. The RSAT assay was conducted as described herein.
as §1, with “5,707,798, which is incorporated herein by reference in its entirety)” for “5,707,798)”

[1] = read-out: Percent Efficacy, compared to ritanserin
[2] = Table 3, read-out: pIC50 (converted)
[3] = compared to ritanserin, read-out: 5HT2A % inhibition
[4] = Table 6, read-out: 5HT2A pIC50 (converted)

T1 sequence (P28223 whole entry): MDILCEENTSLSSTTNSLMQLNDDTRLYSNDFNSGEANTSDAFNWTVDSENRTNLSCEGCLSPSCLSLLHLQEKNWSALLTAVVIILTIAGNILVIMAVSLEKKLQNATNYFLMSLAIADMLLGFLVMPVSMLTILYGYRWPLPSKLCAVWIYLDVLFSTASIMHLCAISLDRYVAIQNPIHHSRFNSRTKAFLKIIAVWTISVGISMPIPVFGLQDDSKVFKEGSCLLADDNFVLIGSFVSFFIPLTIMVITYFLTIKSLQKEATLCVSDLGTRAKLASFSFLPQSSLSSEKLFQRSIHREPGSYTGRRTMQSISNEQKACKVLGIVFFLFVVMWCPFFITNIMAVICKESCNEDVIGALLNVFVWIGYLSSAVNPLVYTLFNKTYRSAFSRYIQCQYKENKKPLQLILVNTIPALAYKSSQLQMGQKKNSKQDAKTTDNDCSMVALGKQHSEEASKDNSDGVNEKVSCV

Row | SMILES | Emax [1] | IC50 [2] | further results
1 | Cc1ccc(CN(C(=O)NCc2ccccc2)C2CCN(C)CC2)cc1 [Example 47AKU-22, N-(4-Methylbenzyl)-N-(1-methylpiperidin-4-yl)-N′-benzyl-carbamide] | 117% | 12.6 nM | 
2 | COc1ccc(CNC(=O)N(Cc2ccc(C)cc2)C2CCN(C)CC2)cc1 [Example 47AKU-44, N-(4-Methylbenzyl)-N-(1-methylpiperidin-4-yl)-N′-(4-methoxybenzyl)-carbamide] | 112% | 3.16 nM | 
3 | COc1ccc(CC(=O)N(Cc2ccc(F)cc2)C2CCN(C)CC2)cc1 [Example 50ELH8, 2-(4-Methoxyphenyl)-N-(4-fluorobenzyl)-N-(1-methylpiperidin-4-yl)acetamide] | 129% | 15.8 nM | 
4 | COc1ccc(CC(=O)N(CCCc2ccccc2)C2CCN(C)CC2)cc1 [Example 50ELH65, 2-(4-Methoxyphenyl)-N-(3-phenyl-1-propyl)-N-(1-methylpiperidin-4-yl)acetamide] | 92% | 12.6 nM | 
5 | COc1ccc(CC(=O)N(CCc2ccc(C)cc2)C2CCN(C)CC2)cc1 [Example 50ELH68, 2-(4-Methoxyphenyl)-N-[2-(4-methylphenyl)ethyl)-N-(1-methylpiperidin-4-yl)acetamide] | 96% | 3.98 nM | 
6 | COc1ccc(CC(=O)N(Cc2ccc(C)cc2)C2CCN(CCCn3c(=O)[nH]c4ccccc43)CC2)cc1 [Example 50ELH89, 2-(4-Methoxyphenyl)-N-(4-methylbenzyl)-N-(1-(3-(1,3-dihydro-2H-benzimidazol-2-one-1-yl)propyl)piperidine-4-yl)acetamide] |  |  | Emax (read-out: Percent Efficacy): 111%; IC50 (pIC50, Table 3): 0.2 nM
7 | COc1ccc(CC(=O)N(CCc2ccc(F)cc2)C2CCN(C)CC2)cc1 [Example 50ELH93A, 2-(4-Methoxyphenyl)-N-(2-4-(fluorophenyl)ethyl)-N-(1-methylpiperidin-4-yl)acetamide] | 106% | 2 nM | 
8 | COc1ccc(CC(=O)N(CCc2cccc(Cl)c2)C2CCN(C)CC2)cc1 [Example 50ELH93E, 2-(4-Methoxyphenyl)-N-[2-(3-chlorophenyl)ethyl]-N-(1-methylpiperidin-4-yl)acetamide] | 72% | 7.94 nM | 
9 | COc1ccc(CCN(C(=O)Cc2ccc(OC)cc2)C2CCN(C)CC2)cc1 [Example 50ELH95B, 2-(4-Methoxyphenyl)-N-[2-(4-methoxyphenyl)ethyl]-N-(1-methylpiperidin-4-yl)acetamide] | 119% | 10 nM | 
10 | COc1ccc(CC(=O)N(Cc2ccc(C)cc2)C2CCN(C)CC2)cc1O [Example 57MBT12B, N-((4-methylphenyl)methyl)-N-(1-methylpiperidin-4-yl)-2-(3-hydroxy-4-methoxyphenyl)acetamide] | 75% | 20 nM | 
11 | COc1ccc(CC(=O)N(Cc2ccc(C)c(O)c2)C2CCN(C)CC2)cc1 [Example 57MBT54B, N-((3-hydroxy-4-methylphenyl)methyl)-N-(1-methylpiperidin-4-yl)-2-(4-methoxyphenyl)acetamide] | 95% | 12.6 nM | 
12 | Cc1ccc(CC(=O)N(Cc2ccc(C)cc2)C2CCN(C)CC2)cc1 [Example 57MBT62B, N-((4-methylphenyl)methyl)-N-(1-methylpiperidin-4-yl)-2-(4-methylphenyl)ace tamide hydrochloride] |  | 12.6 nM | Emax (read-out: Percent Efficacy): 119%
13 | Cc1ccc(CN(C(=O)Cc2ccc(Br)cc2)C2CCN(C)CC2)cc1 [Example 57MBT70-1D, N-((4-methylphenyl)methyl)-N-(1-methylpiperidin-4-yl)-2-(4-bromophenyl)acetamide hydrochloride] |  | 12.6 nM | Emax (read-out: Percent Efficacy): 120%
14 | Cc1ccc(CN(C(=O)Cc2ccc(I)cc2)C2CCN(C)CC2)cc1 [Example 57MBT70-2D, N-((4-methylphenyl)methyl)-N-(1-methylpiperidin-4-yl)-2-(4-iodophenyl)acetamide hydrochloride] |  | 6.31 nM | Emax (read-out: Percent Efficacy): 105%
15 | Cc1ccc(CN(C(=O)Cc2ccc(C(C)C)cc2)C2CCN(C)CC2)cc1 [Example 57MBT70-3D, N-((4-methylphenyl)methyl)-N-(1-methylpiperidin-4-yl)-2-(4-(2-propyl)phenylacetamide hydrochloride] | 87% |  | IC50 (pIC50, Table 3): 1.26 nM
16 | Cc1ccc(CN(C(=O)Cc2ccc(OC(F)(F)F)cc2)C2CCN(C)CC2)cc1 [Example 57MBT70-4D, N-((4-methylphenyl)methyl)-N-(1-methylpiperidin-4-yl)-2-(4-trifluoromethoxyphenyl)acetamide hydrochloride] |  | 3.16 nM | Emax (read-out: Percent Efficacy): 98%
17 | COc1ccc(CC(=O)N(Cc2ccc(C)cc2)C2CCN(C)CC2)cc1C [Example 57MBT70-8D, N-((4-methylphenyl)methyl)-N-(1-methylpiperidin-4-yl)-2-(4-methoxy-3-methylphenyl)acetamide hydrochloride] |  | 20 nM | Emax (read-out: Percent Efficacy): 119%
18 | COc1ccc(CNC(=O)N(Cc2ccc(C)cc2)C2CCN(C(C)(C)C)CC2)cc1 [Example 58AKU-3, N-(4-Methylbenzyl)-N-(1-t-butylpiperidin-4-yl)-N′-(4-methoxybenzyl)carbamide] | 111% | 7.94 nM | 
19 | CCOc1ccc(CC(=O)N(Cc2ccc(C)cc2)C2CCN(C)CC2)cc1 [Example 58AKU-4, 2-(4-Ethoxyphenyl)-N-(4-methylbenzyl)-N-(1-methylpiperidin-4-yl)acetamide] | 110% | 0.251 nM | 
20 | CCCCOc1ccc(CC(=O)N(Cc2ccc(C)cc2)C2CCN(C)CC2)cc1 [Example 58AKU-5, 2-(4-Butoxyphenyl)-N-(4-methylbenzyl)-N-(1-methylpiperidin-4-yl)acetamide] | 99% | 0.316 nM | 
21 | Cc1ccc(CN(C(=O)Cc2ccc(OC(C)C)cc2)C2CCN(C)CC2)cc1 [Example 58AKU-6, 2-(4-i-Propoxyphenyl)-N-(4-methylbenzyl)-N-(1-methylpiperidin-4-yl)acetamide] | 101% | 0.158 nM | 
22 | COc1ccc(CC(=O)N(Cc2ccc(C)cc2)C2CCN(Cc3csc(C)n3)CC2)cc1 [Example 63ELH1A, 2-(4-Methoxyphenyl)-N-(4-methylbenzyl)-N-[1-(2-methylthiazol-4-ylmethyl)piperidin-4-yl]acetamide] |  |  | Emax (read-out: Percent Efficacy): 104%; IC50 (pIC50, Table 3): 5.01 nM
23 | CCOc1ccc(CC(=O)N(CCc2ccc(F)cc2)C2CCN(C)CC2)cc1 [Example 63ELH20, 2-(4-ethoxyphenyl)-N-[2-(4-fluorophenyl)ethyl]-N-(1-methylpiperidin-4-yl)acetamide] | 95% | 1 nM | 
24 | CCOc1ccc(CC(=O)N(Cc2ccc(F)cc2)C2CCN(C)CC2)cc1 [Example 63ELH21, 2-(4-Ethoxyphenyl)-N-(4-fluorobenzyl)-N-(1-methylpiperidin-4-yl)acetamide] | 100% | 3.16 nM | 
25 | Cc1ccc(CC2N(Cc3ccc(OC(F)(F)F)cc3)C(=O)OC23CCN(C)CC3)cc1 (stereo not drawn) [Example 69NLS21, 8-Methyl-4-(4-methylbenzyl)-3-(4-trifluoromethoxybenzyl)-1-oxa-3,8-diaza-spiro[4.5]decan-2-one, hydrochloride] |  |  | Emax [3]: 83%; IC50 [4]: 0.794 nM
26 | COc1ccc(CN2C(=O)OC3(CCN(C)CC3)C2Cc2ccc(C)cc2)cc1 (stereo not drawn) [Example 69NLS35, 3-(4-Methoxybenzyl)-8-methyl-4-(4-methylbenzyl)-1-oxa-3,8-diaza-spiro[4.5]decan-2-one, hydrochloride] |  |  | Emax [3]: 103%; IC50 [4]: 0.251 nM
27 | CN1CCC2(CC1)OC(=O)N(Cc1ccc(OCC3CC3)cc1)C2Cc1ccc(F)cc1 (stereo not drawn) [Example 69NLS52, 3-(4-Cyclopropylmethoxybenzyl)-4-(4-fluorobenzyl)-8-methyl-1-oxa-3,8-diaza-spiro[4.5]decan-2-one, hydrochloride] |  |  | Emax [3]: 87%; IC50 [4]: 0.251 nM
